Assay results as given in patent US7964641B2, “Treatment of neurodegenerative conditions” (BTG International Limited, priority 2003, dated 2011).
Where “and” joins values, the source holds several entries; their conditions need not be identical. Equal values may be shown once. Entries after “also recorded” stand apart in the source; their conditions may differ. Marks after values point to notes of the source that are not given here.

Key:
CREAE = CREAE studies of structured lipids (SCH in SJL mice, MOG in C57BL mice); assay type: in vivo, C57B1/6 and SJL mice; settings: for Severity of CREAE (in words): oral, Studies 2 to 7, 25-350 ul; for Efficacy at low dose (FIG. 20): low dose (50 ul, Study 6); for Shape of dose response: some of the studies
[1] = system: MOG-induced CREAE in SJL Mice; assay: MOG-induced CREAE in SJL mice, forms of GLA (Table 3); assay type: in vivo; settings: for Mean Clinical Score / No. with EAE: 100 μl of test lipid
[2] = system: brain and spinal cord lesions of EAE; settings: GGG treated mice with histological scores 2 and 3
Excerpt: Animals were culled on PSD 25. […] Variation in the severity of changes between individual mice is summarised using a semi-quantitative five point grading system.

EAE [3] = settings: depending on dose; cited from earlier work
EAE [4] = settings: guinea pig, in vivo; cited from earlier work

CCCCC/C=C\C/C=C\C/C=C\C/C=C\CCCC(=O)OCC(COC(=O)CCC/C=C\C/C=C\C/C=C\C/C=C\CCCCC)OC(=O)CCC/C=C\C/C=C\C/C=C\C/C=C\CCCCC [A-A-A, Glycerol trieicosotetra5-Z,8-Z,11-Z,14Z-eneoate]
Severity of CREAE (in words) (CREAE): capable of reducing severity of CREAE

CCCCC/C=C\C/C=C\C/C=C\C/C=C\CCCC(=O)OC(COC(=O)CCCCCCCCC)COC(=O)CCCCCCCCC [C-A-C, Glycerol 1,3-didecanoate 2-eicosatetra-(5-Z,8-Z,11-Z,14-Z)enoate]
Severity of CREAE (in words) (CREAE): capable of reducing severity of CREAE

CCCCC/C=C\C/C=C\C/C=C\CCCCCCC(=O)OC(COC(=O)CCCCCCCCC)COC(=O)CCCCCCCCC [C-DHGLA-C, Glycerol 1,3-didecanoate2-eicosa-(8Z,11Z,14Z)-trienoate]
Efficacy at low dose (FIG. 20) (CREAE): low dose efficacy | Severity of CREAE (in words) (CREAE): capable of reducing severity of CREAE

CCCCC/C=C\C/C=C\C/C=C\CCCCC(=O)OC(COC(=O)CCCCCCCCC)COC(=O)CCCCCCCCC [C-G-C, Glycerol 1,3-didecanoate 2-octadecatri(6-Z9-Z,12-Z)enoate]
Efficacy at low dose (FIG. 20) (CREAE): low dose efficacy | Severity of CREAE (in words) (CREAE): capable of reducing severity of CREAE | Shape of dose response (CREAE): bell shaped response curve

CCCCC/C=C\C/C=C\C/C=C\CCCCC(=O)OCC [EE-GLA]
Mean Clinical Score [1]: 3.0 ± 0.8 | No. with EAE [1]: 5/6

CCCCC/C=C\C/C=C\C/C=C\CCCCC(=O)OCC(COC(=O)CCCC/C=C\C/C=C\C/C=C\CCCCC)OC(=O)CCCCCCCCC [G-C-G, Glycerol 1,3-dioctadeca-(6Z,9Z,12Z)-trienoate 2-decanoate, reference compound]
Severity of CREAE (in words) (CREAE): failed to treat the condition; also recorded: lack of efficacy

CCCCC/C=C\C/C=C\C/C=C\CCCCC(=O)OCC(COC(=O)CCCC/C=C\C/C=C\C/C=C\CCCCC)OC(=O)CCCC/C=C\C/C=C\C/C=C\CCCCC [G-G-G, glycerol tri-6,9,12-linolenate]
EAE severity score of the mice with histological changes [2]: 1 and 1.5 | Severity of CREAE (in words) (CREAE): capable of reducing severity of CREAE | Shape of dose response (CREAE): bell shaped response curve

CCCCC/C=C/C/C=C/C/C=C/CCCCC(=O)OCC(COC(=O)CCCC/C=C/C/C=C/C/C=C/CCCCC)OC(=O)CCCC/C=C/C/C=C/C/C=C/CCCCC [TG-GLA]
Mean Clinical Score [1]: 1.0 ± 1.3^c | No. with EAE [1]: 3/6 | Protective effect in CREAE (in words) ([1]; compared with borage oil): protective effects similar to that of the borage oil

CCCCC/C=C\C/C=C\CCCCCCCC(=O)O [linoleic acid]
Protection in acute rat EAE (EAE [3]): dose-dependent action on the clinical severity but did not abolish it | Incidence and severity of EAE (EAE [4]): partially suppresses

CCCCC/C=C\C/C=C\C/C=C\CCCCC(=O)O [γ-linolenic acid]
Protection in acute rat EAE (EAE [3]): fully protective
